Patent US12059418B2, “Plasmodial surface anion channel inhibitors for the treatment or prevention of malaria” (The United States of America, as represented by the …, priority 2011, dated 2024)

Tests used:
[1] = tested on: channels associated with clag3.2 gene from Dd2; test: PSAC inhibition, 7C20 channels associated with clag3.2; assay type: cell-based, P. falciparum
Description: (§1) A PSAC inhibitor with reversed specificity for the two Dd2 clag3 products was next sought. To this end, hits from the high-throughput screen of Example 2 were surveyed using the progeny clone 7C20 before and after selection for clag3.1 expression. This secondary screen identified ISPA-43 as a PSAC inhibitor with an allele specificity opposite that of ISPA-28 (Formula B below (K0.5 of 32 and 3.9 μM for channels associated with clag3.1 and clag3.2 genes from Dd2, respectively).

[2] = target: T1, channels associated with clag3.2 gene from Dd2 (Plasmodium falciparum, UniProt A0A1W6IZK1); test: as above; assay type: cell-based, P. falciparum; settings: read-out: K0.5; clag3.2 from Dd2
T1 construct: rows headed: K0.5; other: clag3.2 from Dd2
Description: as §1

[3] = target: channels associated with clag3.1 gene from Dd2 (Plasmodium falciparum, UniProt O77310); test: PSAC inhibition, 7C20 channels associated with clag3.1; assay type: cell-based, P. falciparum; settings: clag3.1 from Dd2; read-out: K0.5
Description: as §1

Dd2 parasites = test: In vitro parasite growth inhibition, Dd2; assay type: cell-based, P. falciparum
[4] = tested on: PSAC activity on HB3^3rec; assay type: cell-based, P. falciparum; settings: HB3^3rec before selection
HB3^3rec = test: In vitro parasite growth inhibition, HB3^3rec in PLM; assay type: cell-based, P. falciparum; settings: after transport-based selection
[5] = Inhibitor metabolism in parasite culture; assay type: in vitro ADME, P. falciparum; settings: 40 μM, 37° C., 72 h in Dd2 culture
Description: To examine possible inhibitor metabolism in parasite culture, Dd2 parasites were cultivated in standard media with 40 μM ISPA-28 at 37° C. for 72 h. After centrifugation, the culture supernatant was used as a source of ISPA-28 for comparison to freshly-prepared compound in transport inhibition studies.

[6] = target: PSAC of Dd2 transfectant expressing HB3 allele for PFC0120w (clag 3.1) (Plasmodium falciparum, UniProt O77310); settings: read-out: transfectant K0.5; PFC0120w (clag 3.1) HB3 allele in Dd2
[7] = target: T2, PSAC of Dd2 transfectant expressing HB3 allele for PFC0110w (clag 3.2) (Plasmodium falciparum, UniProt O77309); test: Sorbitol uptake inhibition, Dd2 transfectant expressing HB3 allele of PFC0110w; settings: read-out: transfectant K0.5; PFC0110w (clag 3.2) HB3 allele in Dd2
T2 sequence (O77309 25-1416): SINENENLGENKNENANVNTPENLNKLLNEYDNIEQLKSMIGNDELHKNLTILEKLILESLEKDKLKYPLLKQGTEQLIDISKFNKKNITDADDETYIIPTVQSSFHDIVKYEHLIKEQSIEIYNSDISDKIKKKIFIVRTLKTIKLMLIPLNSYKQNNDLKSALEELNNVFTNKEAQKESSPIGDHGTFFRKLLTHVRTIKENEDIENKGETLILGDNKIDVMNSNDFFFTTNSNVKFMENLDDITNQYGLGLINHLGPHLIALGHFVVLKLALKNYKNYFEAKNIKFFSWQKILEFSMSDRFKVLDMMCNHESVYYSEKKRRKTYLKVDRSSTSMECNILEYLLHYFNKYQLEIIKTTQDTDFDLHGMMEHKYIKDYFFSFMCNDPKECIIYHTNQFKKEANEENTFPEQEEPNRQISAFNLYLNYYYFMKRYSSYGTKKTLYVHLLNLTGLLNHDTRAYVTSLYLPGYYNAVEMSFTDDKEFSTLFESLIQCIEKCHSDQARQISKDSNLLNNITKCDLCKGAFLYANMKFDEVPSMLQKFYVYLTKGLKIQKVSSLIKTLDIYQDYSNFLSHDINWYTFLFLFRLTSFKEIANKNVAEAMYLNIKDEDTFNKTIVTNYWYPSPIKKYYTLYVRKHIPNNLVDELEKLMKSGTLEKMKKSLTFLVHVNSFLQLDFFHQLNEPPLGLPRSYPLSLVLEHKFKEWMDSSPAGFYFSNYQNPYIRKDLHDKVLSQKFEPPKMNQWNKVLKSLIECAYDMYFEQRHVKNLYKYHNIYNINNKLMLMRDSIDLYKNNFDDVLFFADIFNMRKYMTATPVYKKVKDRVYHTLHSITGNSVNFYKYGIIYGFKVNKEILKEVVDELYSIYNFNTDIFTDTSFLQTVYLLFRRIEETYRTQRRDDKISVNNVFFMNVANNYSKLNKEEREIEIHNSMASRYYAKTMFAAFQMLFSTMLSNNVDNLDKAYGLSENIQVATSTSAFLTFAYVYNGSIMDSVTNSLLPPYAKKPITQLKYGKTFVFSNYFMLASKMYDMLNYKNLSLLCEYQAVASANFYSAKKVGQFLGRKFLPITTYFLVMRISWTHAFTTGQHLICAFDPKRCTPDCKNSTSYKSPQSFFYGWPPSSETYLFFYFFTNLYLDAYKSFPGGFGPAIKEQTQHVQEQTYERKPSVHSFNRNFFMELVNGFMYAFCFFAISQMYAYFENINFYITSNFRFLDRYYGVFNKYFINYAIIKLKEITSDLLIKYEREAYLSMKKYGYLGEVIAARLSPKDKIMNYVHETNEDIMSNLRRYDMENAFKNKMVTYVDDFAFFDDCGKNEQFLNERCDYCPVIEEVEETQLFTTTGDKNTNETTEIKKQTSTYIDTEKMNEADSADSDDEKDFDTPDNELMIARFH

[8] = tested on: channels from HB3 parasites; test: Sorbitol uptake osmotic lysis, HB3-infected cells; assay type: cell-based, P. falciparum; settings: read-out: K0.5
Description: Inhibitor affinity for PSAC block was determined using a quantitative transmittance assay based on osmotic lysis of infected cells in sorbitol (Wagner et al., Biophys. J., 84: 116-123 (2003)). […] Other inhibitors had dose responses that are adequately fitted by a single Langmuir isotherm.

HB3 parasites = test: In vitro parasite growth inhibition, HB3; assay type: cell-based, P. falciparum; settings: Plasmodium falciparum
[9] = tested on: PSAC on Dd2-infected cells; assay type: cell-based, P. falciparum; settings: Dd2 vs. HB3
PSAC [10] = test: Uptake of alanine, proline and PhTMA by osmotic lysis; assay type: cell-based, P. falciparum
Source text: ISPA-28 effects on uptake of the amino acids alanine and proline as well as the organic cation phenyl-trimethylammonium (PhTMA), solutes with known increases in permeability after infection (Ginsburg et al., Mol. Biochem. Parasitol. 14: 313-22 (1985); Bokhari et al., J. Membr. Biol. 226: 27-34 (2008)), were also examined.

HB3 channels = test: Cell-attached patch-clamp of HB3-infected erythrocytes; settings: 10 μM, 1.1 M Cl−
Dd2 channels = test: Cell-attached patch-clamp of Dd2-infected erythrocytes; settings: 10 μM, 1.1 M Cl−
PSAC [11] = test: Transport inhibition in 22 different laboratory parasite lines; assay type: cell-based, P. falciparum

T1 sequence (A0A1W6IZK1 whole entry, looked up): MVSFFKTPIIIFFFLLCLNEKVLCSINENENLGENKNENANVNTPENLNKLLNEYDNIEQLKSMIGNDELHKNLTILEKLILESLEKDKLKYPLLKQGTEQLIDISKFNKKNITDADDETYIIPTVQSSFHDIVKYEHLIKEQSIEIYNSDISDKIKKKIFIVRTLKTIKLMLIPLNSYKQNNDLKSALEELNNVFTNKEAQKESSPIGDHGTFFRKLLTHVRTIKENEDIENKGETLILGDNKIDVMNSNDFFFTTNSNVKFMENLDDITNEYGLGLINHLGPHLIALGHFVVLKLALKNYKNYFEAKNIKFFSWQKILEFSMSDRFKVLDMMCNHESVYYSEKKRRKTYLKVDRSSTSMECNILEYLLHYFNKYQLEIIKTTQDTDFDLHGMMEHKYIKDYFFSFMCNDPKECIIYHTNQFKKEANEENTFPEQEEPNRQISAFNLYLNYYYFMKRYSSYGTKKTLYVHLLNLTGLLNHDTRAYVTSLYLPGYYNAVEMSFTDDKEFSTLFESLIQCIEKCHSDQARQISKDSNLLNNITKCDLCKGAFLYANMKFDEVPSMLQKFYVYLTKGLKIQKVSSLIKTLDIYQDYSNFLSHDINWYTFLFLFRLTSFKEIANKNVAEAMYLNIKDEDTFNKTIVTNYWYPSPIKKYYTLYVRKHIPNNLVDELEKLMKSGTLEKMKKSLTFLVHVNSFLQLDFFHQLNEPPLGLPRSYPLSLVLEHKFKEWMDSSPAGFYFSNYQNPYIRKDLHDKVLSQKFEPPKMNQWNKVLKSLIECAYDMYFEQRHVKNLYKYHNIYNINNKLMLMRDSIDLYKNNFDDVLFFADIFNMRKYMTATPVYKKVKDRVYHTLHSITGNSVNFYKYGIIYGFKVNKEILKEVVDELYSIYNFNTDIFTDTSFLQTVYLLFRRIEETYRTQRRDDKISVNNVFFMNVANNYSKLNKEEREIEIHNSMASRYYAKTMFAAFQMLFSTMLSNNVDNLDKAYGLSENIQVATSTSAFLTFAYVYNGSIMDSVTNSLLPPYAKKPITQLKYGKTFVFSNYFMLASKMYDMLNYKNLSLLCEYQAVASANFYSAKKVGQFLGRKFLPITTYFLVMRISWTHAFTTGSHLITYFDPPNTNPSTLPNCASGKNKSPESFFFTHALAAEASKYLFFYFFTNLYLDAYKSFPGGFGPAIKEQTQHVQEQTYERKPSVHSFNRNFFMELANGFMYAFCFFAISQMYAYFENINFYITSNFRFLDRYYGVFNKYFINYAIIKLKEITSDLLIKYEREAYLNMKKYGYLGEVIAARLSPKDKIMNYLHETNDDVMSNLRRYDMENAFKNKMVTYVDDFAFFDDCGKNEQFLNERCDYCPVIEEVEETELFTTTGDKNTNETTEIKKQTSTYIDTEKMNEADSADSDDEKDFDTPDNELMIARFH
Sequence of PSAC of Dd2 transfectant expressing HB3 allele for PFC0120w (clag 3.1) (O77310 whole entry, looked up): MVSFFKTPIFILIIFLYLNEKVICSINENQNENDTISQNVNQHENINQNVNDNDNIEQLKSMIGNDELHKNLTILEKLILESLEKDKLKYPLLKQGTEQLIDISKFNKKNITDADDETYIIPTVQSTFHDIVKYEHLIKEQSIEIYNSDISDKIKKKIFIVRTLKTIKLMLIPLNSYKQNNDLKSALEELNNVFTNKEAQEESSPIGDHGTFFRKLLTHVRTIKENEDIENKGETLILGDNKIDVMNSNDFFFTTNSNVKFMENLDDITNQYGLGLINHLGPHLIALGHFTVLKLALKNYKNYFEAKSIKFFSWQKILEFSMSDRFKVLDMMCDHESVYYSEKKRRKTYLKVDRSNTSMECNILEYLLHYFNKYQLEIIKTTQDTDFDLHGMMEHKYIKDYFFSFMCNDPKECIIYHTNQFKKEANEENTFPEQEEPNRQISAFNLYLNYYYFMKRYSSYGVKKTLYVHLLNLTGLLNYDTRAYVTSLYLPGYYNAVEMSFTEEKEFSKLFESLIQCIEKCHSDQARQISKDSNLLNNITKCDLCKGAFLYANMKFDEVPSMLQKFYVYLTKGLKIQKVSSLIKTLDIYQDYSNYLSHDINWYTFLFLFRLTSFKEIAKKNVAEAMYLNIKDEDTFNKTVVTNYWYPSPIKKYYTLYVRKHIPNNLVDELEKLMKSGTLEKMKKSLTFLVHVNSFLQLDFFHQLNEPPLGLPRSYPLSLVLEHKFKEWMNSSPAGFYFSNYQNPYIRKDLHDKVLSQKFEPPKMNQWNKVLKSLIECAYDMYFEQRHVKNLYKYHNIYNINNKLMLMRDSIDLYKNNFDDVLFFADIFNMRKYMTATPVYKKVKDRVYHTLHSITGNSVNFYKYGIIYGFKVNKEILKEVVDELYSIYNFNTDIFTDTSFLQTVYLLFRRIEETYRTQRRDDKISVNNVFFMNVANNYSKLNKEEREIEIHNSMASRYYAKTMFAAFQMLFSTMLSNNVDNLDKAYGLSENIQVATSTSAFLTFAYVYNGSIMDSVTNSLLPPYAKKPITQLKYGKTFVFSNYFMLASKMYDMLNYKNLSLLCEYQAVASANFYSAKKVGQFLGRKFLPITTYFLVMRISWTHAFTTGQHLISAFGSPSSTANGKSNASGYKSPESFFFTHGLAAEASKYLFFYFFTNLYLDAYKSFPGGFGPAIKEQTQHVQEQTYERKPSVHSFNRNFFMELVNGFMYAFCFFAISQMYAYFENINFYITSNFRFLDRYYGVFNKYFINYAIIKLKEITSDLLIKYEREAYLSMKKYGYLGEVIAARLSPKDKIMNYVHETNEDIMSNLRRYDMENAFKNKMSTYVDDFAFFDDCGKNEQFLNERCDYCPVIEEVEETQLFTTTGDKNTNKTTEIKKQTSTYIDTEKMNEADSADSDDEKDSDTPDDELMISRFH
Sequence of channels associated with clag3.1 gene from Dd2 (O77310 whole entry, looked up): as above

Row | SMILES | higher affinity for channels formed by Dd2 clag3.2 than clag3.1 [1] | IC50 [2] | IC50 [3] | IC50 (Dd2 parasites; Plasmodium falciparum, DD2, PLM) | IC50 (Dd2 parasites; Plasmodium falciparum, DD2, RPMI-based media) | IC50 (Dd2 parasites; RPMI-based media) | channel's ISPA-28 affinity [4] | growth inhibition sensitivity (HB3^3rec) | efficacy after metabolism under in vitro culture conditions [5] | IC50 [6] | IC50 [7] | IC50 [8] | IC50 (HB3 parasites; HB3, PLM) | IC50 (HB3 parasites; HB3, RPMI-based media) | difference in half-maximal affinities [9] | effects on uptake of alanine, proline and phenyl-trimethylammonium (PhTMA) (PSAC [10]) | single PSAC channel inhibition (HB3 channels) | single PSAC channel inhibition (Dd2 channels) | transport inhibition in 22 laboratory parasite lines (PSAC [11])
1 | CCC(CC)C(=O)Nc1ncc2c(n1)CC(c1ccc(OC)c(OC)c1)CC2=O (stereo not shown) [ISPA-43] | 10 fold | 3.9 µM | 32 µM |  |  |  |  |  |  |  |  |  |  |  |  |  |  |  | 
2 | CCn1cc(C2=NOC(C(=O)Nc3c(C)n(C)n(-c4ccccc4)c3=O)C2)c(C)n1 (stereo not shown) [ISPA-28] |  |  |  | 0.66 ± 0.2 µM | > 40 µM | ~50 µM | intermediate between those of HB3 and Dd2 | sensitive to ISPA-28 at levels matching Dd2 | not compromised by metabolism | 0.14 ± 0.012 µM | 0.095 ± 0.008 µM | 43 ± 2 µM | 52 ± 19 µM | > 40 µM | ~800 fold | inhibited with dose responses matching those for sorbitol | largely unaffected | near-fully inhibited | significant transport inhibition was found with only Dd2 and W2
